Data from US20130184290A1, “SELF-EMULSIFYING FORMULATIONS AND METHODS OF USE THEREOF” (CAPSUGEL, Inc., priority 2011, published 2013).
Where two headings read alike, the source gives them in different places.

What was measured:
[1] = Previously determined solubility of compound 1; assay type: physicochemical
Source text: Compound 1 has the following previously determined characteristics: […]

[2] = Previously determined hygroscopicity of compound 1; assay type: physicochemical; settings: free base; at 70% relative humidity (RH)
Source text: Compound 1 has the following previously determined characteristics:
(vi) hygroscopicity (for free base): 0.09% at 70% relative humidity (RH);

[3] = Fed-fasted pharmacokinetics of compound 1 HCl salt; assay type: in vivo; settings: for half-life: human, in vivo, po, read-out: t1/2 for absorption
Source text: The fed-fasted pharmacokinetic data were collected using a “normal fat” meal consisting of toast with 1 pat of butter, a banana, 2% milk, apple juice, and Honey Nut Cheerios®, where the meal has about 501 calories with 99 calories from fat, 346 calories from carbohydrates, and 56 calories from protein; and using a “high fat” meal consisting of 2 eggs fried in butter, 2 strips of bacon, 2 slices of toast with butter, 4 ounces of hash brown potatoes and 8 ounces of whole milk, where the meal has about 1,000 calories with 500-600 calories from fat, 250 calories from carbohydrates, and 150 calories, from protein.

[4] = Tolerability of compound 1 doses; assay type: in vivo; settings: doses of up to 1,600 mg
Source text: Yet, compound 1 is also known to have decreased oral bioavailability in the fasted state, as compared to the fed state. Accordingly, the invention provides formulations to increase the oral bioavailability or to reduce patient-to-patient variability in pharmacokinetic behavior of compound 1, compound 2, or a salt thereof. These formulations include use of a self-emulsifying carrier system to provide stable emulsions capable of dissolving therapeutically effective amounts of compound 1, compound 2, or a salt thereof.

[5] = Apparent intestinal permeability, Caco-2 cell model; assay type: in vitro ADME; settings: human, Caco-2, pH 7.4
Source text: (§1) Absorption of particular drugs may be limited by biological factors, such as reduced cellular permeability in the intestine. Many cellular mechanisms can influence permeability, such as reduced passive paracellular and transcellular transport or increased active export by the efflux transporter protein P-glycoprotein. Thus, the use of self-emulsifying carriers may not be beneficial for drugs having limited cellular permeability, where methods to increase the solubilization of a drug may not increase its permeability in the gastrointestinal tract. Experiments were conducted to assess the apparent intestinal permeability of compound 1 using a Caco-2 cell model.
(§2) Briefly, Caco-2 cells were used as an in vitro model for predicting absorption through the intestinal epithelium. Confluent monolayers of Caco-2 cells were grown on collagen-coated, microporous, polycarbonate membranes (12-well Costar Transwell® plates) that are placed between two chambers. The apical side of the monolayer was exposed to the buffer solution in a first chamber, but the basolateral side of the monolayer adhered to microporous membranes fluidically connected to a second chamber. The dosing solution was added to the first chamber for measurements in the apical-to-basolateral direction (A-to-B) and to the second chamber for measurements in the basolateral-to-apical direction (B-to-A). […] The permeability assay buffer was Hanks Balanced Salt Solution containing 10 mM HEPES and 15 mM glucose at a pH of 7.4. The buffer in the receiver chamber also contained 1% bovine serum albumin. The dosing solution concentration was 1 μM of compound 1 in the assay buffer. All donor chambers were first pre-incubated for five minutes with dosing solution to attempt to saturate any non-specific binding sites on the device with test compound. After five minutes, the solution was removed and replaced with fresh dosing solution, and time was recorded as 0. Cell monolayers were dosed on the apical side/first chamber (for A-to-B measurements) or basolateral side/second chamber (for B-to-A measurements) and incubated at 37° C. with 5% CO2 in a humidified incubator. At 30 and 60 minutes, aliquots were taken from the receiver chambers and replaced with fresh assay buffer. Samples were taken from the donor chamber at 0 and 60 minutes. Each experiment was performed in triplicate.
(§3) The apparent permeability (Papp), percent recovery, and efflux ratio were calculated as follows: […]
(§4) is the slope of the cumulative concentration in the receiver chamber as a function of time; V, [cm^3] is the volume of the receiver chamber; Vd [cm^3] is the volume of the donor chamber; A [cm^2] is the area of the cell monolayer, which is estimated to be about 1.13 cm^2 for the 12-well Costar Transwell® plates; C0[μM] is the measured concentration in the donor chamber at t=0 hours; CN [μM] is the nominal concentration of the dosing solution; Cr,final [μM] is the cumulative concentration in the receiver chamber at the end of the incubation period; and Cd,final [μM] is the cumulative concentration in the donor chamber at the end of the incubation period.
(§5) Thus, absorption of compound 1 in humans is not expected to be permeability limited.

Caco-2 cells = test: as above; assay type: in vitro ADME; settings: for Papp R3: replicate 3
Source text: as §1, §2, §3, §4, §5

[6] = Physical stability, formulations having one carrier; assay type: physicochemical

solubility in propylene glycol, ethanol, and tetrahydrofuran [1]	solubility in water [1]	hygroscopicity [2]	Tmax ([3]; fed state with high fat meal)	Tmax ([3]; fed state with normal fat meal)	half-life ([3]; fasted state)	half-life ([3]; fed state with high fat meal)	half-life ([3]; fed state with normal fat meal)	Papp A→B at 60 min, 1 μM ([5]; A-to-B, average)	efflux ratio at 60 min, 1 μM ([5]; read-out: Efflux Ratio (Papp (B-to-A)/Papp (A-to-B)))	Papp R3 (Caco-2 cells; A-to-B)	Papp R3 (Caco-2 cells; B-to-A)	permeability classification (Caco-2 cells; based on Papp(A-to-B))	efflux of compound 1 (Caco-2 cells; based on efflux ratio)	Physical Stability, one month [6]	Physical Stability, one month (cells printed in weeks) [6]	Physical Stability, one week [6]	Molecule	adverse effects [4]
soluble	slightly soluble	0.09%	4 to 5 h	2 to 5 h	0.05 to 0.17 h	0.8 to 2.8 h	0.5 to 1.6 h	> 1 ×10⁻⁶ cm/s	< 3	6.78 10^−6 cm/s	4.45 10^−6 cm/s	high permeability coefficient	not considered significant				O=C(CC(c1ccccc1)c1ccccc1)N1CCN(C(c2ccccc2)c2ccccc2)CC1 [Compound 1, 1-(4-benzhydrylpiperazin-1-yl)-3,3-diphenylpropan-1-one]	no adverse effects
														>1 month	>1 week	>1 week	Caprylic/capric glycerides	
														>1 month		>1 week	PEG 8 caprylic/capric glycerides	
